Patent publication US20080200403A1, “9A-Carbamoyl and Thiocarbamoyl Azalides with Anti-Inflammatory Activity” (GLAXOSMITHKLINE, priority 2005, published 2008)
Values belong to the molecule of their own block, whether it stands above or below them.

Legend:
granulocytes = experiment: Accumulation in granulocytes (LC-MS); assay type: in vitro ADME; details: 180 min
Procedure: Granulocytes were obtained from heparinized whole blood using density gradient centrifugation. Erythrocytes were sedimented on 3% dextran T-500 (Amersham Pharmacia Biotech AB, Uppsala, Sweden). Leukocytes were centrifuged on Ficoll (Amersham Pharmacia Biotech AB, Uppsala, Sweden) for 35 min at 600 g at 20° C. The pellet of granulocytes was cleared from remaining erythrocytes by a brief hypotonic lysis.
7.5×10^6 granulocytes, isolated as described above, were suspended in 3 mL of RPMI 1640 (Institute of Immunology, Croatia) containing 10 μM of tested macrolide. Samples were incubated at 37° C. for 180 min. Following incubation, the samples were centrifuged through the layer of Poly(dimethylsiloxane-co-diphenylsiloxane), dihydroxy terminated—silicone oil (Aldrich Chemical Company, Milwaukee, USA). The pellet was resuspended in 0.5% Triton X-100 (Sigma, St. Louis, USA) in deionized water (MilliQ, Millipore Corporation, Bedford, USA). The suspension was sonicated, proteins were precipitated with acetonitrile, and the concentration of macrolide in the supernatants was determined by liquid chromatography-mass spectrometry (LC-MS).
Intracellular concentrations of the test compounds were calculated from the mean cell number recovered after centrifuging through silicone oil. According to the literature, about 1 million neutrophils is considered to have a volume of 0.24 μL (Vazifeh et al., Antimicrob Agents Chemo. 1997; 41: 2099-2107). To estimate the extent of macrolide accumulation, the intracellular to extracellular concentration ratio (I/E) was calculated, where E (due to a large volume of incubation medium) was taken as constant (10 μM). Results are expressed relative to azithromycin according to the following equation: % of azithromycin uptake=(I/E of a substance/I/E of azithromycin)×100. I/E values obtained for azithromycin were 164±10.

Male BALB/cJ mice = experiment: Lung neutrophilia induced by bacterial lipopolysaccharide in male BALB/cJ mice; assay type: in vivo; details: single 5 mg dose i.p., intranasal LPS, BALF about 24 hours after LPS, compared to positive control
Procedure: Male BALB/cJ mice (Iffa Credo, France), with average weight ˜30 g were randomly grouped (n=7 in testing group, 8 in positive control, 7 in negative control). Mice were administered intraperitoneally (i.p.) a single 5 mg dose of test compound. Two hours after administration, 2 μg of bacterial lipopolysaccharide (LPS), dissolved in PBS in a volume of 60 μL, was intranasally administered to all experimental groups except the negative control group, which received the same volume (60 μL) of vehicle PBS. Animals were sacrificed approximately 24 hours after application of LPS in order to obtain bronchoalveolar lavage fluid (BALF), which was used to determine concentrations of IL-6 and TNF-α, absolute number of cells, and the percentage of neutophils in BALF. Results are expressed as percentage of decrease of total cell number, relative number of neutrophils, and TNF-α and IL-6 concentration in BALF of treated animals compared to positive control (LPS stimulated, but untreated animals).
Besides accumulation of inflammatory cells in BALF, the extent and anatomic site of pulmonary inflammation induced by LPS was assessed 24 hours after PBS or LPS exposure. Accumulation of granulocytes and mononuclear cells in peribronchial (PB) and perivascular (PV) lung tissue areas and in alveolar spaces was monitored following sacrifice of the animals.

% of azithromycin uptake (granulocytes; 10 μM): 100%
intracellular to extracellular concentration ratio (I/E) (granulocytes; 10 μM): 164±10
Compound: CC[C@H]1OC(=O)[C@H](C)[C@@H](O[C@H]2C[C@@](C)(OC)[C@@H](O)[C@H](C)O2)[C@H](C)[C@@H](O[C@@H]2O[C@H](C)C[C@H](N(C)C)[C@H]2O)[C@](C)(O)C[C@@H](C)CN(C)[C@H](C)[C@@H](O)[C@]1(C)O [Azithromycin, azithromycin, reference compound]
percentage of decrease of IL-6 concentration in BALF (Male BALB/cJ mice): 72
percentage of decrease of TNF-α concentration in BALF (Male BALB/cJ mice): 66
percentage of decrease of relative number of neutrophils (% of neutrophils) in BALF (Male BALB/cJ mice): 37
percentage of decrease of total cell number in BALF (Male BALB/cJ mice): 77

Compound: CCC1OC(=O)C(C)C(OC2CC(C)(OC)C(O)C(C)O2)C(C)C(OC2OC(C)CC(N(C)C)C2O)C(C)(O)CC(C)CN(C(=S)Nc2cccc(F)c2)C(C)C(O)C1(C)O (stereo not drawn) [Compound 3]
% of azithromycin uptake (granulocytes; granulocytes, 10 μM macrolide, 37° C., (I/E of substance/I/E of azithromycin)×100): 93%

Compound: CCC1OC(=O)C(C)C(O)C(C)C(OC2OC(C)CC(N(C)C)C2O)C(C)(O)CC(C)CN(C(=S)NCc2ccccc2)C(C)C(O)C1(C)O (stereo not drawn) [Compound 1]
percentage of decrease of IL-6 concentration in BALF (Male BALB/cJ mice): 28
percentage of decrease of TNF-α concentration in BALF (Male BALB/cJ mice): 41
percentage of decrease of relative number of neutrophils (% of neutrophils) in BALF (Male BALB/cJ mice): 9
percentage of decrease of total cell number in BALF (Male BALB/cJ mice): 50

Compound: CC[C@H]1OC(=O)[C@H](C)[C@@H](O[C@H]2C[C@@](C)(OC)[C@@H](O)[C@H](C)O2)[C@H](C)[C@@H](O[C@@H]2O[C@H](C)C[C@H](N(C)C)[C@H]2O)[C@](C)(OC)C[C@@H](C)C(=O)[C@H](C)[C@@H](O)[C@]1(C)O [Clarithromycin, clarithromycin, reference compound]
percentage of decrease of IL-6 concentration in BALF (Male BALB/cJ mice): 60
percentage of decrease of TNF-α concentration in BALF (Male BALB/cJ mice): 78
percentage of decrease of relative number of neutrophils (% of neutrophils) in BALF (Male BALB/cJ mice): 36
percentage of decrease of total cell number in BALF (Male BALB/cJ mice): 77
